Test results taken from patent EP3333154A1, “CRYSTALLINE FORM OF A SELECTIVE 5-HT6 RECEPTOR ANTAGONIST” (SANDOZ AG, priority 2016, dated 2018).

Assays:
[1] = Time-dependent solubility in 0.1 N aqueous HCl solution; conditions: for Concentration: 0.1 N HCl, (25 ± 1) °C, hydrochloride
Protocol: The time dependent solubilities of idalopirdine hydrochloride form III and form V in 0.1 N HCl have been determined. Thereby, saturated solutions of both forms have been stirred at controlled temperature of (25 ± 1) °C and known aliquots have been taken after 5, 30 and 60 minutes. After filtering the solids, the idalopiridine concentrations of the remaining mother liquors were determined by HPLC using the same method as provided in Example 3 herein. The absolute solubility values were calculated from a calibration curve generated with solutions of known idalopirdine concentrations. […] Table 4: Time dependent solubility of idalopirdine hydrochloride form III and form V in 0.1 N HCl at (25 ± 1) °C

[2] = Gravimetric moisture sorption (GMS); type: physicochemical
Protocol: Moisture sorption and desorption curves were recorded with an SPSx-1µ moisture sorption analyzer (ProUmid, Ulm). The measurement cycle was started at ambient RH of 45%. RH was then decreased to 5% in 5% steps, followed by a further decrease to 3% and to 0%. […] Finally, RH was increased to 40% in 5% steps.
The time per step was set to a minimum of 2 hours and a maximum of 6 hours. If an equilibrium condition with a constant mass of ± 0.01 % within 1 hour was reached before the maximum time for all examined samples the sequential humidity step was applied before the maximum time of 6 hours. If no equilibrium was achieved the consecutive humidity step was applied after the maximum time of 6 hours. The temperature was 25 ± 0.1 °C.

[3] = Differential scanning calorimetry (thermal stability); type: physicochemical; conditions: DSC, heating rate 10 K/min
Protocol: Differential scanning calorimetry (DSC) was performed on a Mettler Polymer DSC R instrument. The sample (4.36 mg) was heated in a 40 microL aluminium pan with pierced aluminium lid from room temperature to 250 °C at a rate of 10 K/min. Nitrogen (purge rate 50 mL/min) was used as purge gas.

[4] = Accelerated stress test at 40 °C/75% RH (HPLC impurities and PXRD); type: physicochemical; conditions: 1 month at 40 °C/ 75% RH, open dish
Protocol: Idalopirdine hydrochloride form V was subjected to accelerated stress conditions of 40 °C and 75% RH in an open dish for one month.

[5] = listed as Idalopirdine hydrochloride form V of the present invention

Concentration ([1]; 5 min) [µg/mL]	Concentration ([1]; 30 min) [µg/mL]	Concentration ([1]; 60 min) [µg/mL]	higher concentration in 0.1 N HCl [1]	Concentration, difference to Form III ([1]; 5 min)	Concentration, difference to Form III ([1]; 30 min)	Concentration, difference to Form III ([1]; 60 min)	PXRDs before and after the GMS experiment ([2]; 0 to 95% RH, 25 ± 0.1 °C)	mass increase in the sorption cycle ([2]; sorption cycle from 0 to 95% RH, 25 °C) [w-%]	thermally stable up to a temperature [3]	PXRD before and after ([4]; listed as Idalopirdine hydrochloride form V)	Increase of total impurities (HPLC at 225nm) [4, 5]	PXRD before and after [4, 5]	Increase of total impurities (HPLC at 225nm) ([4]; hydrochloride)	SMILES
500	600	800												Cl.Fc1ccc2c(CCNCc3cccc(OCC(F)(F)C(F)F)c3)c[nH]c2c1 [Form III, N-[2-(6-fluoro-1H-indol-3-yl)ethyl]-3-(2,2,3,3-tetrafluoropropoxy)benzylamine hydrochloride, reference compound]
700	900	900	up to 50%	+40%	+50%	+12.5%	identical	0.5	at least 120 °C	No change	+0.7 area%	unchanged	about 0.7 area%	Cl.Fc1ccc2c(CCNCc3cccc(OCC(F)(F)C(F)F)c3)c[nH]c2c1 [Form V, N-[2-(6-fluoro-1H-indol-3-yl)ethyl]-3-(2,2,3,3-tetrafluoropropoxy)benzylamine hydrochloride]
